The values below come from PMC12429925 (Molecules, 2025).

Common to all, as to assay: cells
Holding throughout (assay type): cell-based

In assay [1] the test system is A2780 (human ovarian carcinoma) cells. The settings on record: for IC50: Homo sapiens.
In assay [2] the test system is CCD18Co (non-malignant human fibroblasts). Particulars: CCD-18Co.
The test system of assay [3] is A549 (lung carcinoma) cells. Particulars: Homo sapiens.
For assay [4], the system named is MCF7 (breast carcinoma) cells. Particulars: Homo sapiens.
Assay [5] concerns HT29 (colorectal carcinoma) cells. The settings on record: Homo sapiens.
The subject of assay [6] is A2780cis (ovarian carcinoma) cells. The settings on record: Homo sapiens.
In assay [7] the test system is panel of five different human tumor cell lines. Particulars: read-out: IC50 range over tumor cell lines.
The mark [8] stands for this setting: A2780, 72 h, read-out: IC50 A2780.
The mark [9] stands for this setting: A549, 72 h, read-out: IC50 A549.
[10] abbreviates: MCF7, 72 h, read-out: IC50 MCF7.
Where [11] appears, read: HT-29, 72 h, read-out: IC50 HT29.

Like-named read-outs stand apart in the source and are kept apart here.

On to `CCCCCCCCCCCC(=O)NCc1ccc(O)c(OC)c1` [Compound 15, N-[(4-Hydroxy-3-methoxy)benzyl]dodecanamide], for which the IC50 in assay [1] (setting [8]) is less than 10 µM.

`CCCCCCCCCCCCCC(=O)NCc1ccc(O)c(OC)c1` [Compound 19, N-[(4-Hydroxy-3-methoxy)benzyl]tetradecanamide]: in assay [1] (setting [8]), the IC50 was less than 10 µM.

Turning to `CCCCCCCCCCCCCCCCC(=O)NCc1ccc(O)c(OC)c1` [Compound 25, N-[(4-Hydroxy-3-methoxy)benzyl]heptadecanamide], the IC50 in assay [2] (72 h, read-out: IC50 CCD18Co) was more than 100 µM; in assay [3] (setting [9]) it was 60.5 µM; in assay [4] (setting [10]) it was 38.4 µM; in assay [5] (setting [11]), 78.5 µM; in assay [6] (72 h, read-out: IC50 A2780cis) it was more than 100 µM.

For `CCCCCCCCCCCCCCCCCCC(=O)NCc1ccc(O)c(OC)c1` [Compound 29, N-[(4-Hydroxy-3-methoxy)benzyl]nonadecanamide], the IC50 is more than 100 µM in assay [2] (72 h, read-out: IC50 CCD18Co); 55.3 µM in assay [3] (setting [9]); 15.9 µM in assay [4] (setting [10]); 68.4 µM in assay [5] (setting [11]); 59.5 µM in assay [6] (72 h, read-out: IC50 A2780cis).

`CCCCCCCCCCCCC(=O)NCc1ccc(O)c(OC)c1` [Compound 17, N-[(4-Hydroxy-3-methoxy)benzyl]tridecanamide]: the IC50 in assay [1] (setting [8]) is less than 10 µM.

Take `COc1cc(CNC(=O)CCCCC=CC(C)C)ccc1O` [A, 8-methyl-N-vanillyl-6-nonenamide, reference compound]: the IC50 in assay [2] (72 h, read-out: IC50 CCD18Co) was more than 100 µM; in assay [2] (read-out: IC50 CCD18Co, converted into μg/mL) it was more than 30.5 µg/mL; in assay [7] it was 15 to 84 µM; in assay [3] (setting [9]) it was 70.3 µM; in assay [3] (A549, read-out: IC50 A549, converted into μg/mL), 21.5 µg/mL; in assay [4] (setting [10]), 42.1 µM. In addition, the IC50 in assay [4] (MCF7, read-out: IC50 MCF7, converted into μg/mL) was 12.9 µg/mL; in assay [5] (setting [11]), 51 µM; in assay [5] (HT-29, read-out: IC50 HT29, converted into μg/mL), 15.6 µg/mL; in assay [1] (setting [8]), 15.9 µM; in assay [1] (A2780, read-out: IC50 A2780, converted into μg/mL), approximately 4.86 µg/mL; in assay [6] (72 h, read-out: IC50 A2780cis), 84.3 µM. Besides, the IC50 in assay [6] (read-out: IC50 A2780cis, converted into μg/mL) stood at 25.8 µg/mL. Further, the “Selectivity index SI (IC50 CCD18Co/IC50 A2780)” value in assay [1] is reported as more than 6.3.

Turning to `CCCCCCCCCCCCCCCCCC(=O)NCc1ccc(O)c(OC)c1` [Compound 27, N-[(4-Hydroxy-3-methoxy)benzyl]octadecanamide], the IC50 is more than 100 µM in assay [2] (72 h, read-out: IC50 CCD18Co); 50.3 µM in assay [3] (setting [9]); 32.6 µM in assay [4] (setting [10]); 42.4 µM in assay [5] (setting [11]); 76.4 µM in assay [6] (72 h, read-out: IC50 A2780cis). Also, the “Selectivity index SI (IC50 CCD18Co/IC50 A2780)” value in assay [1] is on record as more than 29.0.

Consider `CCCCCCCCCCCCCCC(=O)NCc1ccc(O)c(OC)c1` [Compound 21, N-[(4-Hydroxy-3-methoxy)benzyl]pentadecanamide], for which the IC50 in assay [1] (setting [8]) was less than 10 µM.
